Among the data in patent US20180194762A1 (Pharmacyclics LLC, priority 2017, published 2018) are IC50 and TEC/Btk values, retold here.

Like-named read-outs stand apart in the source and are kept apart here.

What all share (format): biochemical
For one experiment, the target named is T1, Btk (Homo sapiens, UniProt Q06187).
T1 construct: purified from insect cells as a full-length construct containing a N-terminal 6X-His tag; His6 (N); made in house; host or cells: insect cells (Method C)
The experiment can be described thus: Btk in vitro inhibitory activity (one of Method A TR-FRET, Method B electrophoretic mobility shift, Method C radiometric filter binding). An outline of the steps: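 Three alternative formats were used. A radiometric filter-binding read used 8 nM full-length His-BTK with 0.2 mg/mL poly(Glu-Tyr) 4:1 (C); microfluidic separation of 1 μM FAM-peptide by 1 nM BTK gave IC50 from 12-point curves (B); TR-FRET at Km ATP, 0.5 nM Btk, gave Ki(app)-derived IC50 (A).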
(In EMSA bound probe runs differently from free probe, usually more slowly.)

In the next experiment the target is T2, TEC (Homo sapiens, UniProt P42680).
T2 sequence (P42680 1-631): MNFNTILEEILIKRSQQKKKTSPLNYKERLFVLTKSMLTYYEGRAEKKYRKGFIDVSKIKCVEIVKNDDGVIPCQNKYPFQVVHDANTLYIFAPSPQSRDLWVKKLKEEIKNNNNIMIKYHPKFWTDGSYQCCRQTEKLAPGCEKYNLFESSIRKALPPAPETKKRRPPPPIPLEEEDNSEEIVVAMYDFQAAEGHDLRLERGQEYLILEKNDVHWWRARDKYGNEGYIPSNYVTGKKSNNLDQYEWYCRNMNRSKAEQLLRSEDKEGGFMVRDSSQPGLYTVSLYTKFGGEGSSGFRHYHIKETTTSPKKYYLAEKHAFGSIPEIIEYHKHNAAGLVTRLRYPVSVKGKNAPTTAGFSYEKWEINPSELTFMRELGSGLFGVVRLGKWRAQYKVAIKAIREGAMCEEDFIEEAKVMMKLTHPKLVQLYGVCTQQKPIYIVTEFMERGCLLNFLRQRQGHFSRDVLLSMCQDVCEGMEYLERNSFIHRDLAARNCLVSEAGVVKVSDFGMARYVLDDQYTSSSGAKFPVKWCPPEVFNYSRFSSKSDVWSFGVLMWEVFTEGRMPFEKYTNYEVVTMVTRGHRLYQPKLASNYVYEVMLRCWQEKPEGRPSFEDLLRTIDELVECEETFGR
As to the kind of experiment: Inhibition of a panel of kinases (in vitro HotSpot kinase assay, 33P-ATP, 1 μM ATP). Particulars: for IC50: HotSpot kinase assay, 1 μM ATP; for TEC/Btk: ratio of TEC IC50 to Btk IC50 (selectivity). Put shortly: (§1)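 Radiometric read-out: 33P transfer to a suitable substrate by each purified enzyme, ATP at 1 μM. Values are degree of inhibition.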

A further experiment has as its target T3, panel of kinases (Homo sapiens, UniProt P51813).
T3 sequence (P51813 1-675): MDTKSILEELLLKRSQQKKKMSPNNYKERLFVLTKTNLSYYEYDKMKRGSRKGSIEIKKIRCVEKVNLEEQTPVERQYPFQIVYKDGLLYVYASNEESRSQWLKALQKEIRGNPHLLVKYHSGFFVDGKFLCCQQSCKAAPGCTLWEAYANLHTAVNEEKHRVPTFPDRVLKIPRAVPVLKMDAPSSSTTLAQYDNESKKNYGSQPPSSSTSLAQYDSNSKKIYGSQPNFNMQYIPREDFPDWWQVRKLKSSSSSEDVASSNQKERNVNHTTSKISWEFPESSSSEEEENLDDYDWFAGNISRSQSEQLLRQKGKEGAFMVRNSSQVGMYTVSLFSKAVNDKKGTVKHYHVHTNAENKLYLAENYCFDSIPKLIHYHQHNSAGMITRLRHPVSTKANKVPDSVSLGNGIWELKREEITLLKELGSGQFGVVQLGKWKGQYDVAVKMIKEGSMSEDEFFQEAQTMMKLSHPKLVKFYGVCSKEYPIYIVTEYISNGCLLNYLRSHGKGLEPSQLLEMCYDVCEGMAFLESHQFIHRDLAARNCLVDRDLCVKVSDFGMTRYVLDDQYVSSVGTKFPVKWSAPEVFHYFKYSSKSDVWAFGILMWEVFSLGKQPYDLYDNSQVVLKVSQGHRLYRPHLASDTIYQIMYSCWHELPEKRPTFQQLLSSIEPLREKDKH
The experiment can be described thus: Inhibition of a panel of kinases (in vitro HotSpot kinase assay, 33P-ATP, 1 μM ATP), other kinases. The settings on record: BMX wild-type, read-out: BMX-WT IC50. An outline of the steps:
as §1

The mark [1] stands for this setting: method is one of A, B or C, not stated which, read-out: IC50 values against Btk.
The mark [2] stands for this setting: wild-type Btk, read-out: Btk-WT IC50.

T1 sequence (Q06187 whole entry): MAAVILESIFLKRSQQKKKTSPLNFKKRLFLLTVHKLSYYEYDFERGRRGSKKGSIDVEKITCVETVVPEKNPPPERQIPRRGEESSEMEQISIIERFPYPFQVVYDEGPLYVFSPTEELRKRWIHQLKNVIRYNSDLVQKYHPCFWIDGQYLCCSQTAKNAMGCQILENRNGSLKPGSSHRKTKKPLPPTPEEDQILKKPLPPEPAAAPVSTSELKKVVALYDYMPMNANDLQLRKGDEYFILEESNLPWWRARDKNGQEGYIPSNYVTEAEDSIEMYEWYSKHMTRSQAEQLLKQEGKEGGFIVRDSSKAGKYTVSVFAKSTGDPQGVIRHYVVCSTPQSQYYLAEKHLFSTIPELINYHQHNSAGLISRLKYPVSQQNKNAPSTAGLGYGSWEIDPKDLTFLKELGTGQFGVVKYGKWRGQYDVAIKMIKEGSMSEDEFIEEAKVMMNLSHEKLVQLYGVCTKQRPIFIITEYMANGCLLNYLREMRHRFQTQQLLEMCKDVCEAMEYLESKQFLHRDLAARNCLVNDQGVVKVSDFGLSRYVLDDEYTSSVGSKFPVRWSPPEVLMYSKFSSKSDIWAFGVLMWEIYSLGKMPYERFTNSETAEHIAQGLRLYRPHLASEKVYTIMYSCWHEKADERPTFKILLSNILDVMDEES

A word on the IC50: it is the concentration that inhibits the measured activity by half. With `C=CC(=O)N1CC[C@@H](Nc2n[nH]c3nccc(-c4ccc(CNC(=O)c5cc(C(C)(C)C)on5)c(F)c4)c23)C1` [Example 65, 5-tert-butyl-N-{[2-fluoro-4-(3-{[(3R)-1-(prop-2-enoyl)pyrrolidin-3-yl]amino}-1H-pyrazolo [3,4-b]pyridin-4-yl)phenyl]methyl}-1,2-oxazole-3-carboxamide], the IC50 at Btk (setting [1]) was less than 10 nM; at Btk (setting [2]), 0.0792 nM; against TEC, 42 nM; at panel of kinases, 78 nM. Also, the TEC/Btk at TEC worked out at 529.

As to `C=CC(=O)N1CC[C@@H](Nc2n[nH]c3nccc(-c4ccc(CNC(=O)c5ccc(C(C)(C)C)cc5)c(F)c4)c23)C1` [Compound 6, 4-tert-butyl-N-{[2-fluoro-4-(3-{[(3R)-1-(prop-2-enoyl)pyrrolidin-3-yl]amino}-1H-pyrazolo[3,4-b]pyridin-4-yl)phenyl]methyl}benzamide], the 50% inhibitory concentration (IC50) was found to be 0.62 nM at Btk (setting [2]), 130 nM at TEC and 182 nM on panel of kinases. Further, on TEC, the TEC/Btk is listed as 210.

Consider `C=CC(=O)N(C)[C@@H]1CCN(c2n[nH]c3nccc(-c4ccc(CN(C)C(=O)c5nc(C(C)(C)C)no5)c(F)c4)c23)C1` [Example 338, 3-tert-butyl-N-{[2-fluoro-4-(3-{(3R)-3-[methyl(prop-2-enoyl)amino]pyrrolidin-1-yl}-1H-pyrazolo[3,4-b]pyridin-4-yl)phenyl]methyl}-N-methyl-1,2,4-oxadiazole-5-carboxamide], for which the IC50 at Btk (setting [2]) was determined as 0.0678 nM; at TEC it was 22.7 nM; at panel of kinases, 28.3 nM.

As for `CC(C)c1nc(C(=O)NCc2ccc(-c3ccnc4[nH]nc(N5CC[C@@H](N)C5)c34)cc2F)no1` [Example 370, N-[(4-{3-[(3R)-3-aminopyrrolidin-1-yl]-1H-pyrazolo[3,4-b]pyridin-4-yl}-2-fluorophenyl)methyl]-5-(propan-2-yl)-1,2,4-oxadiazole-3-carboxamide], the results for the IC50 on Btk (setting [2]), at TEC and on panel of kinases were 6.98 nM, 3880 nM and 1740 nM, respectively.

On to `C[C@@H](NC(=O)c1nc(C(C)(C)C)no1)c1ccc(-c2ccnc3[nH]nc(N4CCCCC4)c23)cc1` [Example 384, 3-tert-butyl-N-[(1R)-1-{4-[3-(piperidin-1-yl)-1H-pyrazolo[3,4-b]pyridin-4-yl]phenyl}ethyl]-1,2,4-oxadiazole-5-carboxamide], for which the IC50 on Btk (setting [2]) was 0.664 nM; against TEC, 3040 nM; at panel of kinases, 2040 nM.

As for `CC(C)(C)c1nc(C(=O)NCc2ccc(-c3ccnc4[nH]nc(NC5CNC5)c34)cc2F)no1` [Example 124, N-[(4-{3-[(azetidin-3-yl)amino]-1H-pyrazolo[3,4-b]pyridin-4-yl}-2-fluorophenyl)methyl]-5-tert-butyl-1,2,4-oxadiazole-3-carboxamide], the IC50 is less than 10 nM at Btk (setting [1]), 0.828 nM at Btk (setting [2]), 843 nM against TEC and 3350 nM on panel of kinases. Besides, the TEC/Btk on TEC came to 1018.

Take `CC(C)(C)c1ccc(C(=O)NCc2ccc(-c3ccnc4[nH]nc(NC5CCNCC5)c34)cc2F)cc1` [Example 103, 4-tert-butyl-N-[(2-fluoro-4-{3-[(piperidin-4-yl)amino]-1H-pyrazolo[3,4-b]pyridin-4-yl}phenyl)methyl]benzamide]: the figures for the IC50 at Btk (setting [2]), at TEC and on panel of kinases were 172 nM, more than 10000 nM and 4440 nM, respectively. For the same compound, on TEC, the TEC/Btk is reported as more than 100.

`CN(C)C(=O)N1CC[C@@H](Oc2n[nH]c3nccc(-c4ccc(CNC(=O)c5noc(C(C)(C)C)n5)c(F)c4)c23)C1` [Example 282, 5-tert-butyl-N-{[4-(3-{[(3R)-1-(dimethylcarbamoyl)pyrroli-din-3-yl]oxy}-1H-pyrazolo[3,4-b]pyridin-4-yl)-2-fluorophenyl]methyl}-1,2,4-oxadiazole-3-carboxamide]: the IC50 at Btk (setting [2]) turned out to be 10.4 nM; against TEC, 5240 nM; on panel of kinases, 6080 nM. Moreover, the TEC/Btk on TEC is listed as 504.

`C=CC(=O)N1CC[C@@H](Nc2n[nH]c3nccc(-c4cccc(NC(=O)c5noc(C(C)(C)C)n5)c4CO)c23)C1` [Example 160, 5-tert-butyl-N-[2-(hydroxymethyl)-3-(3-{[(3R)-1-(prop-2-enoyl)pyrrolidin-3-yl]amino}-1H-pyrazolo[3,4-b]pyridin-4-yl)phenyl]-1,2,4-oxadiazole-3-carboxamide]: the figures for the IC50 at Btk (setting [2]), at TEC and at panel of kinases were 37.3 nM, 922 nM and 444 nM, respectively. For the same compound, at TEC, the TEC/Btk was 25.

As to `C=CC(=O)N[C@@H]1CCN(c2n[nH]c3nccc(-c4ccc(CN(C)C(=O)c5nc(C(C)(C)C)no5)c(F)c4)c23)C1` [Example 335, 3-tert-butyl-N-{[2-fluoro-4-(3-{(3R)-3-[(prop-2-enoyl)amino]pyrrolidin-1-yl}-1H-pyrazolo[3,4-b]pyridin-4-yl)phenyl]methyl}-N-methyl-1,2,4-oxadiazole-5-carboxamide], the IC50 at Btk (setting [2]) turned out to be 0.0513 nM; against TEC it was 57.7 nM; at panel of kinases, 61.3 nM.

Take `C[C@H]1CC[C@@H](Nc2n[nH]c3nccc(-c4ccc(CNC(=O)c5noc(C(C)(C)C)n5)c(F)c4)c23)CN1S(=O)(=O)C1CC1` [Example 128, 5-tert-butyl-N-{[4-(3-{[(3R,6S)-1-(cylcopropanesulfonyl)-6-methylpiperidin-3-yl]amino}-1H-pyrazolo[3,4-b]pyridin-4-yl)-2-fluorophenyl]methyl}-1,2,4-oxadiazole-3-carboxamide]: the IC50 at Btk (setting [1]) is less than 10 nM; on Btk (setting [2]), 1.29 nM; against TEC it was 500 nM; on panel of kinases it was 1120 nM. In addition, the TEC/Btk at TEC is 388.

For the compound `C=CC(=O)N1CC[C@@H](Nc2n[nH]c3nccc(-c4cccc(NC(=O)c5ccc(C(C)(C)C)cc5)c4C)c23)C1` [Compound 9, 4-tert-butyl-N-[2-methyl-3-(3-{[(3R)-1-(prop-2-enoyl)pyrrolidin-3-yl]amino}-1H-pyrazolo[3,4-b]pyridin-4-yl)phenyl]benzamide], the IC50 at Btk (setting [2]) was found to be 3.62 nM; at TEC it was 2460 nM; on panel of kinases it was 1910 nM. The TEC/Btk on TEC amounted to 680.

In the case of `CCNC(=O)N1C[C@H](Nc2n[nH]c3nccc(-c4ccc(CNC(=O)c5nc(C(C)(C)C)no5)c(F)c4)c23)CC[C@@H]1C` [Example 209, (2S,5R)-5-{[4-(4-{[(3-tert-butyl-1,2,4-oxadiazole-5-carbonyl)amino]methyl}-3-fluorophenyl)-1H-pyrazolo[3,4-b]pyridin-3-yl]amino}-N-ethyl-2-methylpiperidine-1-carboxamide], the figures for the IC50 on Btk (setting [2]), at TEC and on panel of kinases were 1.26 nM, 905 nM and 2200 nM, respectively. In addition, the TEC/Btk at TEC was 718.

Consider `C[C@@H](NC(=O)c1cc(C(C)(C)O)on1)c1ccc(-c2ccnc3[nH]nc(NC4CCCC4)c23)cc1` [Example 397, N-[(1R)-1-{4-[3-(cyclopentylamino)-1H-pyrazolo[3,4-b]pyridin-4-yl]phenyl}ethyl]-5-(2-hydroxypropan-2-yl)-1,2-oxazole-3-carboxamide], for which the values for the IC50 at Btk (setting [2]), at TEC and at panel of kinases were 382 nM, 6060 nM and 3360 nM, respectively.
